This passage reports Ki results from EP2970215B1, “PYRROLIDINE DERIVATIVES, PHARMACEUTICAL COMPOSITIONS CONTAINING THEM, AND THEIR USE IN THERAPY” (AbbVie Deutschland GmbH & Co. KG, priority 2013, dated 2014).

pKi: −log10 of the molar value.

In this experiment the target is T1, human GlyT1c transporter (Homo sapiens, UniProt P48067).
T1 construct: expressed in transfected cells; host or cells: CHO cells (recombinant; line hGlyT1c_5_CHO is named for the uptake assay)
T1 sequence (P48067 1-706): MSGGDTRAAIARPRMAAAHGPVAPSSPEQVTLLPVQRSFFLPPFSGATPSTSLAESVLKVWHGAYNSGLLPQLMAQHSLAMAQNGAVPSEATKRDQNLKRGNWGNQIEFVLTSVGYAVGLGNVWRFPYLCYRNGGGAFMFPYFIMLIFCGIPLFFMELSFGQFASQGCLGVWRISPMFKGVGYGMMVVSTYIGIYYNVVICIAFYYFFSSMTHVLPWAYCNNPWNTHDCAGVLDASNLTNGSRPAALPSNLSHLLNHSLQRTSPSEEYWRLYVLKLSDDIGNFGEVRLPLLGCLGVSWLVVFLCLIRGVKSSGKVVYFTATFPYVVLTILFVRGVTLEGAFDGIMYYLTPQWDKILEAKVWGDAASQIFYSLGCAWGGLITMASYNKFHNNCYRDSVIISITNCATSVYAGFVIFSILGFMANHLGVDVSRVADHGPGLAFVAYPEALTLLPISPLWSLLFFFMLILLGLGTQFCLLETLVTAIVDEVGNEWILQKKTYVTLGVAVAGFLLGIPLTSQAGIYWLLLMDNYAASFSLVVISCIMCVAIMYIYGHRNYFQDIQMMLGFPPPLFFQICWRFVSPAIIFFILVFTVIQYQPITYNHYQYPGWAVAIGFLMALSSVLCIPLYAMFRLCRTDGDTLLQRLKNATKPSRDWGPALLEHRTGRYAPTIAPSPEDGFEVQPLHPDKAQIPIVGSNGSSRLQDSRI
The experiment in a line: Radioligand binding assay using recombinant CHO cell membranes expressing human GlyT1. From the text:
2. Radioligand binding assays using recombinant CHO cell membranes expressing human GlyT1: […]

Setting [1] is: radioligand binding, recombinant CHO cell membranes expressing human GlyT1c.
The mark [2] stands for this setting: radioligand binding to human GlyT1c transporter-expressing membranes.

For `Cn1cnc(S(=O)(=O)N2CC(Cc3cc(C(F)(F)F)ccn3)C(c3ccccc3)C2)c1` (centres unmarked) [Example 817, 2-({1-[(1-methyl-1H-imidazol-4-yl)sulfonyl]-4-phenylpyrrolidin-3-yl}methyl)-4-(trifluoromethyl)pyridine], the negative logarithm of the Ki (pKi) – broadly, the negative decadic logarithm of the Ki, by convention in mol/L – under setting [1] was not below 6.00.

Consider `Cn1cnc(S(=O)(=O)N2C[C@@H](Nc3ccc(F)c(C(F)(F)F)c3)[C@H](C3CCOC3)C2)c1` (relative stereo) [Example 832, trans-N-[4-fluoro-3-(trifluoromethyl)phenyl]-1-[(1-methyl-1H-imidazol-4-yl)sulfonyl]-4-(tetrahydrofuran-3-yl)pyrrolidin-3-amine], for which, under setting [1], the pKi is not below 6.00.

In the case of `COc1ccc(S(=O)(=O)N2C[C@@H](NC(=O)c3cccc(C(F)(F)F)c3Cl)[C@H](c3ccccc3)C2)cn1` (relative stereo) [Example 44, 2-chloro-N-{trans-1-[(6-methoxypyridin-3-yl)sulfonyl}-4-phenylpyrrolidin-3-yl}-3-(trifluoromethyl)benzamide], the pKi under setting [2] was not below 5.00. With `Cn1cc(S(=O)(=O)N2C[C@@H](NCc3ccc(C(F)(F)F)cc3Cl)[C@H](c3ncccc3F)C2)nn1` (relative stereo) [Example 818, Trans-N-[2-chloro-4-(trifluoromethyl)benzyl]-4-(3-fluoropyridin-2-yl)-1-[(1-methyl-1H-1,2,3-triazol-4-yl)sulfonyl]pyrrolidin-3-amine], the pKi under setting [1] was not below 8.00. Regarding `CC(=O)Nc1ccc(Cl)cc1N[C@@H]1CN(S(=O)(=O)c2cn(C)cn2)C[C@H]1c1ccc(F)cc1` (relative stereo) [Example 372, N-[4-chloro-2-({Trans-4-(4-fluorophenyl)-1-[(1-methyl-1H-imidazol-4-yl)sulfonyl]pyrrolidin-3-yl}amino)phenyl]acetamide], under setting [2], the negative-log Ki (pKi) is not below 5.00.

In the case of `Cc1ccc(C(=O)N[C@@H]2CN(S(=O)(=O)c3cn(C)cn3)C[C@H]2c2ccccc2)cc1` (relative stereo) [Example 24, 4-methyl-N-{trans-1-[(1-methyl-1H-imidazol-4-yl)sulfonyl]-4-phenylpyrrolidin-3-yl}benzamide], the pKi under setting [2] is not below 5.00. Consider `Cn1cnc(S(=O)(=O)N2CC(Nc3ccc(F)c(Cl)c3)C([C@@H]3CCCO3)C2)c1` (stereo partly drawn) [Example 825, N-(3-chloro-4-fluorophenyl)-1-[(1-methyl-1H-imidazol-4-yl)sulfonyl]-4-[(2S)-tetrahydrofuran-2-yl]pyrrolidin-3-amine], for which, under setting [1], the pKi was not below 6.00. Regarding `Cn1cnc(S(=O)(=O)N2C[C@@H](Nc3ccc(Cl)cc3)[C@H](c3ccc(F)cc3)C2)c1` (relative stereo) [Example 95, trans-N-(4-chlorophenyl)-4-(4-fluorophenyl)-1-[(1-methyl-1H-imidazol-4-yl)sulfonyl]pyrrolidin-3 - amine], under setting [2], the pKi was not below 6.00. In the case of `Cn1cnc(S(=O)(=O)N2C[C@@H](Nc3ccc(Cl)cc3)[C@H](c3ccccc3)C2)c1` (relative stereo) [Example 75, trans-N-(4-chlorophenyl)-1-[(1-methyl-1H-imidazol-4-yl)sulfonyl]-4-phenylpyrrolidin-3-amine], under setting [2], the pKi is not below 6.00. Still for that read-out and setting: with `Cn1cnc(S(=O)(=O)N2C[C@H](Nc3cc(Cl)ncn3)[C@@H](c3ccc(F)cc3)C2)c1` [Example 691, 6-chloro-N-{(3R,4S)-4-(4-fluorophenyl)-1-[(1-methyl-1H-imidazol-4-yl)sulfonyl]pyrrolidin-3-yl}pyrimidin-4-amine] the figure was not below 7.00; with `Cc1cccc(N[C@@H]2CN(S(=O)(=O)c3cn(C)cn3)C[C@H]2c2ccc(F)cc2)c1` (relative stereo) [Example 85, trans-4-(4-fluorophenyl)-1-[(1-methyl-1H-imidazol-4-yl)sulfonyl]-N-(3-methylphenyl)pyrrolidin-3-amine], not below 8.00.

With `Cn1cnc(S(=O)(=O)N2C[C@@H](Nc3ccnc(C(F)(F)F)c3)[C@H](c3ccccc3F)C2)c1` (relative stereo) [Example 204, N-{trans-4-(2-fluorophenyl)-1-[(1-methyl-1H-imidazol-4-yl)sulfonyl]pyrrolidin-3-yl}-2-(trifluoromethyl)pyridin-4-amine], under setting [2], the pKi is not below 7.00. Turning to `Cn1cnc(S(=O)(=O)N2C[C@@H](Nc3ccncc3)[C@H](c3ccc(F)cc3)C2)c1` (relative stereo) [Example 177, N-{trans-4-(4-fluorophenyl)-1-[(1-methyl-1H-imidazol-4-yl)sulfonyl]pyrrolidin-3-yl}pyridin-4-amine], the pKi under setting [2] is not below 5.00.

`Cn1cnc(S(=O)(=O)N2C[C@@H](Nc3ccc(F)c(C(F)(F)F)c3)[C@H](c3ncccc3F)C2)c1` (relative stereo) [Example 767, Trans-4-(3-fluoropyridin-2-yl)-N-[4-fluoro-3-(trifluoromethyl)phenyl]-1-[(1-methyl-1H-imidazol-4-yl)sulfonyl]pyrrolidin-3-amine]: under setting [2], the pKi is not below 7.00. The same measure, in the same setting: with `Cn1cnc(S(=O)(=O)N2C[C@H](NC(=O)CCCC(C)(F)F)[C@@H](c3ccc(F)cc3)C2)c1` [Example 735, 5,5-difluoro-N-{(3R,4S)-4-(4-fluorophenyl)-1-[(1-methyl-1H-imidazol-4-yl)sulfonyl]pyrrolidin-3-yl}hexanamide] the figure was not below 5.00; with `Cn1cnc(S(=O)(=O)N2C[C@H](OCC(=O)NCC(F)F)[C@@H](c3ccc(F)cc3)C2)c1` [Example 797, N-(2,2-difluoroethyl)-2-({(3R,4S)-4-(4-fluorophenyl)-1-[(1-methyl-1H-imidazol-4-yl)sulfonyl]pyrrolidin-3-yl}oxy)acetamide], not below 5.00; with `CC(C)CN[C@H]1CN(S(=O)(=O)c2cn(C)cn2)C[C@@H]1c1ccccc1` [Example 439, (3R,4S)-1-[(1-methyl-1H-imidazol-4-yl)sulfonyl]-N-(2-methylpropyl)-4-phenylpyrrolidin-3-amine], not below 6.00. Same read-out and setting: with `Cn1cnc(S(=O)(=O)N2C[C@@H](NC(=O)c3cccc(C(F)(F)F)c3Cl)[C@H](c3ccccc3Cl)C2)c1` (relative stereo) [Example 115, 2-chloro-N-{trans-4-(2-chlorophenyl)-1-[(1-methyl-1H-imidazol-4-yl)sulfonyl]pyrrolidin-3-yl}-3-(trifluoromethyl)benzamide] the figure was not below 7.00.

For the molecule `Cn1cnc(S(=O)(=O)N2C[C@H](NCc3nc4c(s3)CCCC4)[C@@H](c3ccccc3)C2)c1` [Example 456, (3R,4S)-1-[(1-methyl-1H-imidazol-4-yl)sulfonyl]-4-phenyl-N-(4,5,6,7-tetrahydro-1,3-benzothiazol-2-ylmethyl)pyrrolidin-3-amine], under setting [2], the pKi was not below 6.00. The same measure, in the same setting: in the case of `Cc1cc2c(cc1S(=O)(=O)N1CC(Nc3ccc(F)c(F)c3)C(c3ccccc3)C1)OCC(=O)N2` (centres unmarked) [Example 481, 7-({3-[(3,4-difluorophenyl)amino]-4-phenylpyrrolidin-1-yl}sulfonyl)-6-methyl-2H-1,4-benzoxazin-3(4H)-one] it was not below 5.00. `Cn1cnc(S(=O)(=O)N2C[C@@H](Nc3ccc(Cl)c(F)c3)[C@H](c3ccc(F)cc3)C2)c1` (relative stereo) [Example 162, trans-N-(4-chloro-3-fluorophenyl)-4-(4-fluorophenyl)-1-[(1-methyl-1H-imidazol-4-yl)sulfonyl]pyrrolidin-3-amine]: the pKi under setting [2] was not below 6.00.

Regarding `Cn1cnc(S(=O)(=O)N2C[C@@H](NC(=O)c3cccc(C(F)(F)F)c3Cl)[C@H](c3ccc(Cl)cc3)C2)c1` (relative stereo) [Example 13, 2-chloro-N-{trans-4-(4-chlorophenyl)-1-[(1-methyl-1H-imidazol-4-yl)sulfonyl]pyrrolidin-3-yl}-3-(trifluoromethyl)benzamide], the pKi under setting [2] is not below 6.00. On to `Cn1cnc(S(=O)(=O)N2C[C@@H](Nc3ccccc3C(F)(F)F)[C@H](c3ccccc3)C2)c1` (relative stereo) [Example 66, trans-1-[(1-methyl-1H-imidazol-4-yl)sulfonyl]-4-phenyl-N-[2-(trifluoromethyl)phenyl]pyrrolidin-3-amine], for which the pKi under setting [2] was not below 5.00. `O=C(N[C@@H]1CN(S(=O)(=O)c2cccnc2)C[C@H]1c1ccccc1)c1cccc(C(F)(F)F)c1Cl` (relative stereo) [Example 45, 2-chloro-N-[trans-4-phenyl-1-(pyridin-3-ylsulfonyl)pyrrolidin-3-yl]-3-(trifluoromethyl)benzamide]: the pKi under setting [2] is not above 5.00. For the molecule `Cn1cnc(S(=O)(=O)N2C[C@@H](NC(=O)c3ccccc3)[C@H](c3ccccc3)C2)c1` (relative stereo) [Example 25, N-{trans-1-[(1-methyl-1H-imidazol-4-yl)sulfonyl]-4-phenylpyrrolidin-3-yl}benzamide], under setting [2], the pKi is not below 5.00.

As for `Cn1cnc(S(=O)(=O)N2C[C@@H]([C@@H]3CCCOC3)[C@H](Nc3ccc(F)c(C(F)(F)F)c3)C2)c1` (mixture of isomers) [Example 791, Trans-N-[4-fluoro-3-(trifluoromethyl)phenyl]-1-[(1-methyl-1H-imidazol-4-yl)sulfonyl]-4-[(3S)-tetrahydro-2H-pyran-3-yl]pyrrolidin-3-amine], the pKi under setting [2] is not below 6.00.
